Patent US6632665B1, “Human gene encoding 3′-5′ exonuclease” (Wake Forest University, priority 1999, dated 2003)
Each block holds one molecule with its values, some of them ahead of it.

Assays:
HL-60 cells [1] = assay: araC incorporation into DNA and total DNA synthesis in 6-MP pretreated HL-60 cells; assay type: cell-based
Method: (§1) HL-60 cells were incubated with 6-mercaptopurine (6-MP) to allow intracellular levels of thioinosine monophosphate (TIMP) to accumulate. […] Cytoplasmic 6-MP is converted to an active nucleotide metabolite TIMP by the action of hypoxanthine phosphoribosyltransferase (HPRT). […] Intracellular accumulation of TIMP was determined by HPLC [Zimm, et al., Cancer Res. 45:4156-4161 (1985)]. Upon addition of araC, the amount of araC incorporated into DNA increased and total DNA synthesis decreased in cells pretreated with 6-MP relative to untreated cells. At peak intracellular levels of TIMP, araC incorporation into DNA relative to total DNA synthesis was 20-fold greater in the 6-MP treated cells.
(§2) Logarithmically growing cultures of HL-60 cells are incubated with 6-MP for varying times. The cultures are divided into two groups. The first group is treated with 1 μM ^3H-araC for 1 hour to measure araC in DNA. The second group is treated with ^3H-thymidine and 1 μM unlabeled araC for 1 hour to measure total DNA synthesis. Cells are pelleted, washed with PBS, and ^3H-araC or ^3H-thymidine in acid insoluble material is determined by scintillation counting. To measure araCTP in HL-60 cells, 6-MP treated samples are incubated with 1 μM ^3H-araC. Cells are pelleted and washed with PBS. The acid soluble nucleotides are collected and separated by HPLC (Partisil 10 SAX, Whatman). The fraction containing ^3HaraCTP is quantified by scintillation counting.

HL-60 cells [2] = assay: cell killing by growth curves and clonogenic assays of treated cells; assay type: cell-based; settings: 6-MP pretreatment plus araC
HL-60 cells [3] = assay: intracellular accumulation of TIMP by HPLC; assay type: cell-based; settings: HL-60 cells pretreated with 50 or 100 μM 6-MP
Method: as §1

HL-60 cells [4] = assay: intracellular araCTP quantified by HPLC in 6-MP treated cells; assay type: cell-based; settings: cells treated with 6-MP up to twelve hours, harvested one hour after addition of araC
Method: The increased incorporation of araC into the DNA was not the result of increased accumulation of araC in the 6-MP treated cells. Cells were treated with 6-MP for varying times for up to twelve hours followed by incubation with […]. At time points up to twelve hours, cells were treated with araC and harvested one hour after addition of araC. The nucleotides were then separated using HPLC, and intracellular araCTP was quantified.
as §2

murine leukemia cells = murine leukemia cells treated for twelve hours with 6-MP; cited from earlier work
30 kDa exonuclease = molecular target: T1, 30 kDa exonuclease (Homo sapiens, UniProt Q9NSU2); assay: in vitro enzyme inhibition of the 30 kDa 3'-5' exonuclease; assay type: biochemical; settings: 30 kDa exonuclease purified from myeloblastic leukemia cells
T1 construct: endogenous in cells; host or cells: human myeloblastic leukemia cells (myeloblasts)
T1 sequence (Q9NSU2 1-314): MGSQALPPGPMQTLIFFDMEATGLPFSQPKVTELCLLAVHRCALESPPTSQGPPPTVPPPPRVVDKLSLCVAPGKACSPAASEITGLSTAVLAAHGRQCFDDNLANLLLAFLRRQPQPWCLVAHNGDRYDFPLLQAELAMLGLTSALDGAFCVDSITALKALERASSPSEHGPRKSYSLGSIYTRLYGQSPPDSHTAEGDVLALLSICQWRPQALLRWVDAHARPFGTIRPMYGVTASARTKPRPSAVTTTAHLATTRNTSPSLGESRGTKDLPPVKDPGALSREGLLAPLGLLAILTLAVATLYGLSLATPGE
Method: In order to assess the effect of intracellular TIMP that contributed to increased araC incorporation, exonuclease activity was partially purified from myeloblastic leukemia cells and in vitro enzyme inhibition studies ware carried out with TIMP. The majority of the cellular exonuclease activity was found in a band migrating on SDS-PAGE with a predicted molecular weight of 30 kDa.
Inhibition studies were also carried out with the purified 30 kD exonuclease and either TIMP or dGMP.
Useful methods in the practice of this example include the following: DNA pol δ may be purified from human myeloblasts using the methods of Syvaoja et al. (Proc. Natl. Acad. Sci., USA 87:6664-6668, 1990) through step 5. The specific activity of the DNA pol δ preparation is preferably about 3,500 units/mg. A unit of DNA pol δ catalyzes the incorporation of 1 nmol of total nucleotide per hour at 37° C. using 100 μM poly(dAdT) as template and reaction conditions as described by Lewis et al. (Biochemistry 33:14620-14624, 1994). […]
To measure the 3′-5′ exonuclease activity, a 23 mer is labeled with ^32P at the 5′ position and used in reactions as ssDNA. […] Samples are dried, resuspended in 5 μl 95% formamide, and analyzed by electrophoresis through 15% polyacrylamide sequencing gels. Radiolabeled bands are visualized and quantified by phosphorimagery (Molecular Dynamics). […]

[5] = test system: exonuclease activity specifically associated with DNA polymerase δ; settings: Lee, et al. Biochemistry 19:215-219 (1980); cited from earlier work
[6] = test system: 30 kDa enzyme with 3'-5' exonuclease activity; assay: removal of 3' terminal araC from template primer by the 30 kDa exonuclease; assay type: biochemical, human, bovine; settings: araC at the 3' terminus of the template primer
Excerpt: For protein purification from bovine thymus, an additional step using phenyl SUPEROSE was employed. In order to detect exonuclease activity in the cell extract, a biochemical assay was developed using DNA polymerase a and an oligonucleotide template primer with an araC analog at the 3′ terminus. In this assay, incorporation of radiolabeled nucleotides into the araC-template primer by the polymerase first requires that the araC analog be removed by a 3′-5′ exonuclease.

[7] = test system: 32P-labeled 23 nucleotide oligomer; assay: exonuclease activity of protein extracts of transformed BL21/DE3 cells; assay type: biochemical; settings: protein extract of BL21/DE3 cells, IPTG induced
Method: To measure the 3′-5′ exonuclease activity, a 23 mer is labeled with ^32P at the 5′ position and used in reactions as ssDNA. Reaction mixtures (10 μl) are prepared containing 20 mM Tris-HCl, pH 7.5, 10 mM MgCl2, 2 mM DTT, 100 μg/mL BSA, 100 nM 23 mer, and 1 μl of the appropriate enzyme dilution. Incubation is 20 minutes at 37° C., and reactions are stopped by addition of 30 μl 95% ethanol. Samples are dried, resuspended in 5 μl 95% formamide, and analyzed by electrophoresis through 15% polyacrylamide sequencing gels. Radiolabeled bands are visualized and quantified by phosphorimagery (Molecular Dynamics). One unit of exonuclease is the amount of enzyme needed to degrade 1 pmol of 3′ termini in 1 min at 37° C.
The pTREX1h/T7 plasmid was electroporated into BL21/DE3 cells, which were grown at 23° C. to a density of OD595 0.3. Isopropylthiogalactopyranoside (IPTG) was added to induce overexpression and incubation of the cells was continued overnight. Protein extracts were prepared from the cells and enzyme activity assayed using a ^32P-labeled 23 nucleotide oligomer.
Template DNA was the mouse EST 480859. PCR was carried out as described for TREX1h and the resulting amplification product was subcloned as for TREX1h. The resulting expression plasmid was designated pTREX2m/T7 and expression of the encoded gene was carried out as described for TREX1h. […]

[8] = HL-60 cells pretreated with 6-MP relative to untreated cells, upon addition of araC

time of peak intracellular TIMP concentration (HL-60 cells [3]): approximately twelve
variation of intracellular araCTP levels during the time course (HL-60 cells [4]): less than two-fold
Molecule: Sc1ncnc2nc[nH]c12 [6-MP, 6-mercaptopurine]
amount of araC incorporated into DNA (HL-60 cells [1]; [8]): increased
total DNA synthesis (HL-60 cells [1]; [8]): decreased
araC incorporation into DNA relative to total DNA synthesis, 6-MP treated vs untreated cells (HL-60 cells [1]; HL-60 cells pretreated with 6-MP, at peak intracellular levels of TIMP, then araC): 20 fold
cell killing (HL-60 cells [2]): increase in cell killing
intracellular level of TIMP (murine leukemia cells): approximately 180 μM

Ki (30 kDa exonuclease): 17 µM
Molecule: O=P(O)(O)OC[C@H]1O[C@@H](n2cnc3c(S)ncnc32)[C@H](O)[C@@H]1O [TIMP, thioinosine monophosphate]
inhibition of DNA polymerase δ associated exonuclease activity [5]: inhibit exonuclease activity

Molecule: Nc1ccn([C@@H]2O[C@H](CO)[C@@H](O)[C@@H]2O)c(=O)n1 [araC, 1-β-D-arabinofuranosylcytosine]
apparent rate of araC removal by the exonuclease [6]: approximately the same rate as the rate of deoxynucleotide monophosphate removal

Ki (30 kDa exonuclease): 56 µM
Molecule: Nc1nc2c(ncn2[C@H]2C[C@H](O)[C@@H](COP(=O)(O)O)O2)c(=O)[nH]1 [dGMP]

B1: TREX1h: human 3'-5' exonuclease polypeptide, SEQ ID NO:2, expressed from pTREX1h/T7 (protein)
chain: MGSQALPPGPMQTLIFFDMEATGLPFSQPKVTELCLLAVHRCALESPPTSQGPPPTVPPPPRVVDKLSLCVAPGKACSPAASEITGLSTAVLAAHGRQCFDDNLANLLLAFLRRQPQPWCLVAHNGDRYDFPLLQAELAMLGLTSALDGAFCVDSITALKALERASSPSEHGPRKSYSLGSIYTRLYGQSPPDSHTAEGDVLALLSICQWRPQALLRWVDAHARPFGTIRPMYGVTASARTKPRPSAVTTTAHLATTRNTSPSLGESRGTKDLPPVKDPGALSREGLLAPLGLLAILTLAVATLYGLSLATPGE
modifications: HOMO SAPIENS
exonuclease activity versus control cells with parental vector only [7]: 30 fold

B2: TREX2m: murine 3'-5' exonuclease polypeptide, SEQ ID NO:32, expressed from pTREX2m/T7 (protein, listed as Mus musculus)
chain: MSEPPRAETFVFLDLEATGLPNMDPEIAEISLFAVHRSSLENPERDDSGSLVLPRVLDKLTLCMCPERPFTAKASEITGLSSESLMHCGKAGFNGAVVRTLQGFLSRQEGPICLVAHNGFDYDFPLLCTELQRLGAHLPQDTVCLDTLPALRGLDRAHSHGTRAQGRKSYSLASLFHRYFQAEPSAAHSAEGDVHTLLLIFLHRAPELLAWADEQARSWAHIEPMYVPPDGPSLEA
exonuclease activity versus control cells with parental vector only [7]: 30 fold
